# Data reported in patent US20260001914A1, “MACROCYCLIC PEPTIDES TARGETING KRAS” (Merck Sharp & Dohme LLC, priority 2022, published 2026).
# *1 amine or outer side, *2 acyl side, *3 side chain or, on linkers, in order; H or OH if unused. Where a SMILES comes first, the peptide text is derived from it. Bridges are numbered along the chain shown (N, C = ends). [ ]: non-standard residue; d: D form. Phe(4-guanidino) = N=C(N)Nc1ccc(C[C@H](N)C(=O)O)cc1; X18 = CNC(=N)N(C)c1ccc(C[C@H](N[*:1])C(=O)[*:2])cc1; N(3-imidazol-1-ylpropyl)Gly = O=C(O)CNCCCn1ccnc1; Ala(pyrimidin-5-yl) = N[C@@H](Cc1cncnc1)C(=O)O; NMe3Pal(6-Me) = CN[C@@H](Cc1ccc(C)nc1)C(=O)O; Phe(4-CH2NH2) = NCc1ccc(C[C@H](N)C(=O)O)cc1; NMePhe(4-F) = CN[C@@H](Cc1ccc(F)cc1)C(=O)O; X37 = O=C([C@H](Cc1cnc(F)cc1F)N[*:1])[*:2]; X67 = O=C([C@H](Cc1ncc(Cl)cn1)N[*:1])[*:2]; X25 = O=C([C@H](Cc1ccc(F)nc1)N[*:1])[*:2]; X57 = Cn1ccc(C[C@H](N[*:1])C(=O)[*:2])n1; X10 = CS(=O)(=O)CCCCN(CC(=O)[*:2])[*:1]; Nle(5,5-F2) = CC(F)(F)CC[C@H](N)C(=O)O; 1Nal = N[C@@H](Cc1cccc2ccccc12)C(=O)O; NHCH2CH2SCH2CO = O=C(CSCCN[*:1])[*:2]; Phe(2-F) = N[C@@H](Cc1ccccc1F)C(=O)O; NMe3Pal = CN[C@@H](Cc1cccnc1)C(=O)O; X1 = O=C(C12CC(CN[*:1])(C1)C2)[*:2]; X12 = CC(=O)NCCCN(CC(=O)[*:2])[*:1]; Aha = [N-]=[N+]=NCC[C@H](N)C(=O)O; NMeOrn(Me) = CNCCC[C@H](NC)C(=O)O; Ala(cPr) = N[C@@H](CC1CC1)C(=O)O; NMeF = CN[C@@H](Cc1ccccc1)C(=O)O; PhLac = O=C(O)[C@@H](O)Cc1ccccc1; 3Pal = N[C@@H](Cc1cccnc1)C(=O)O; d3Pal = N[C@H](Cc1cccnc1)C(=O)O; d(αMeC) = C[C@@](N)(CS)C(=O)O; Ahp(2) = CCCCC[C@H](N)C(=O)O; Cba = N[C@@H](CC1CCC1)C(=O)O; hLeu = CC(C)CC[C@H](N)C(=O)O; hSer = N[C@@H](CCO)C(=O)O; αMeC = C[C@](N)(CS)C(=O)O; NMeA = CN[C@@H](C)C(=O)O; Nle = CCCC[C@H](N)C(=O)O
# Molecular target: KRAS-G12D protein (Homo sapiens, UniProt P01116, G12D)
# Experiment: SOS-mediated nucleotide exchange assay (BODIPY-GDP / Tb-streptavidin TR-FRET)
# Format: biochemical
# Conditions: not given
# Sequence of KRAS-G12D protein (P01116 1-188 isoform P01116-2 G12D): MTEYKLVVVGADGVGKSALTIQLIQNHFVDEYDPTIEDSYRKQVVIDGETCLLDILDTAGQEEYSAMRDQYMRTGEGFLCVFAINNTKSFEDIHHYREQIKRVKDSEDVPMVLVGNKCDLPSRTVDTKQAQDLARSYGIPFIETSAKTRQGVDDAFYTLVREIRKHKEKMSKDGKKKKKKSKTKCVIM
row,SMILES,EC50 [nM]
1,"CCCCC[C@@H]1NC(=O)[C@H](Cc2ccc(OC)cc2)NC(=O)[C@H](CC2CCC2)NC(=O)[C@H](Cc2ccc(N(C)C(=N)NC)cc2)NC(=O)[C@H](CCCNC)N(C)C(=O)[C@H](Cc2ccccc2)NC(=O)CSC[C@@](C)(C(N)=O)NC(=O)[C@H](Cc2ccc(C)nc2)N(C)C1=O [compound 395, cyclo(F-NMeOmMe-Phe4GnMeMe-cBuA-TyrOMe-Ahp-NMe3Pal4Me-aMeCl-ClAc)] ({CH2CO}-F[NMeOrn(Me)][X18][Cba]Y(Me)[Ahp(2)][NMe3Pal(6-Me)][αMeC]-NH2; thioether N-8)",16
2,"CCCC[C@@H]1NC(=O)[C@H](Cc2ccc(CN)cc2)NC(=O)[C@H](CCCNC(=N)N)NC(=O)[C@H](Cc2cccc3ccccc23)NC(=O)CSC[C@](C)(C(=O)O)NC(=O)[C@H](Cc2ccccc2)N(C)C(=O)[C@H](CCCC)NC(=O)[C@H](Cc2ccc(O)cc2)NC1=O [compound 144, cyclo(1Nal-R-Phe4CH2NH2-Nle-Y-Nle-NMeF-daMeC-ClAc)] ({CH2CO}-[1Nal]R[Phe(4-CH2NH2)][Nle]Y[Nle][NMeF][d(αMeC)]-OH; thioether N-8)",1460
3,"CCCCC[C@@H]1NC(=O)[C@H](Cc2ccc(OC)cc2)NC(=O)[C@H](CC2CCC2)NC(=O)[C@H](Cc2ccc(NC(=N)N)cc2)NC(=O)CN(CCCNC(C)=O)C(=O)[C@H](Cc2ccccc2)NC(=O)CSC[C@@](C)(C(N)=O)NC(=O)[C@H](Cc2ccccc2)N(C)C1=O [compound 387, cyclo(F-AcApG-Phe4Gn-cBuA-TyrOMe-Ahp-NMcF-aMeCl-ClAc)] ({CH2CO}-F[X12][Phe(4-guanidino)][Cba]Y(Me)[Ahp(2)][NMeF][αMeC]-NH2; thioether N-8)",164
4,"CCCC[C@@H]1NC(=O)[C@H](Cc2ccn(C)n2)NC(=O)[C@H](C)N(C)C(=O)[C@H](Cc2ccccc2)OC(=O)C23CC(CNC(=O)[C@H](Cc4ccccc4)N(C)C(=O)[C@H](CCCC)NC(=O)[C@H](Cc4ccccc4F)NC1=O)(C2)C3 [compound 319, cyclo(FLac-NMeA-MePyzAla-Nle-Phe2F-Nle-NMeF-amBCP)] (cyclo([NMeA][X57][Nle][Phe(2-F)][Nle][NMeF][X1][PhLac]))",5070
5,"CCCC[C@@H]1NC(=O)[C@H](Cc2cccnc2)NC(=O)[C@H](C)N(C)C(=O)[C@H](Cc2ccccc2)OC(=O)C23CC(CNC(=O)[C@H](Cc4cccnc4)N(C)C(=O)[C@H](CCC(C)C)NC(=O)[C@H](Cc4ccccc4F)NC1=O)(C2)C3 [compound 124, cyclo(FLac-NMeA-3Pal-Nle-Phe2F-hL-NMe3Pal-amBCP)] (cyclo([3Pal][Nle][Phe(2-F)][hLeu][NMe3Pal][X1][PhLac][NMeA]))",2.17
6,"CCCC[C@@H]1NC(=O)[C@H](C(C)C)NC(=O)[C@H](CC2CCC2)NC(=O)[C@H](Cc2cccnc2)NC(=O)[C@H](CCN=[N+]=[N-])NC(=O)[C@H](Cc2ccccc2)NC(=O)C23CC(CNC(=O)[C@H](Cc4cccnc4)N(C)C1=O)(C2)C3 [compound 113, cyclo(F-DabN3~3Pal-cBuA-V-Nle-NMe3Pal-amBCP)] (cyclo(F[Aha][3Pal][Cba]V[Nle][NMe3Pal][X1]))",6560
7,"C[C@H]1C(=O)N[C@@H](Cc2cccnc2)C(=O)N[C@@H](CC2CC2)C(=O)N[C@@H](Cc2ccccc2F)C(=O)N[C@@H](CCC(C)(F)F)C(=O)N(C)[C@@H](Cc2ccccc2)C(=O)NCC23CC(C2)(C3)C(=O)O[C@@H](Cc2ccccc2)C(=O)N1C [compound 289, cyclo(FLac-NMeA-3Pal-cPrA-Phe2F-Nle3F2-NMeF-amBCP)] (cyclo([3Pal][Ala(cPr)][Phe(2-F)][Nle(5,5-F2)][NMeF][X1][PhLac][NMeA]))",9
8,"CCCC[C@@H]1NC(=O)[C@H](Cc2cccnc2)NC(=O)CN(CCCCS(C)(=O)=O)C(=O)[C@H](Cc2ccccc2)OC(=O)C23CC(CNC(=O)[C@H](Cc4cccnc4)N(C)C(=O)[C@H](CCCC)NC(=O)[C@H](Cc4ccccc4F)NC1=O)(C2)C3 [compound 407, cyclo(FLac-NOHmsbGly-3Pal-Nle-Phe2F-Nle-NMe3Pal-amBCP)] (cyclo([3Pal][Nle][Phe(2-F)][Nle][NMe3Pal][X1][PhLac][X10]))",367
9,"CCCC[C@@H]1NC(=O)[C@H](Cc2cncnc2)NC(=O)[C@H](C)N(C)C(=O)[C@H](Cc2ccccc2)OC(=O)C23CC(CNC(=O)[C@H](Cc4ccc(F)cc4)N(C)C(=O)[C@H](CCCC)NC(=O)[C@H](Cc4ccccc4F)NC1=O)(C2)C3 [compound 173, cyclo(FLac-NMeA-PyrimAla-Nle-Phe2F-Nle-NMePhe4F-amBCP)] (cyclo([NMeA][Ala(pyrimidin-5-yl)][Nle][Phe(2-F)][Nle][NMePhe(4-F)][X1][PhLac]))",12.5
10,"CCCCC[C@@H]1NC(=O)[C@H](Cc2ccc(O)cc2)NC(=O)[C@H](CC(C)C)NC(=O)[C@H](Cc2ccc(O)cc2)NC(=O)[C@@H](CCCNC(=N)N)NC(=O)[C@H](Cc2ccccc2)NC(=O)CSC[C@@H](C(N)=O)NC(=O)[C@H](Cc2ccccc2)N(C)C1=O [compound 4, cyclo(F-dR-Y-L-Y-Ahp-NMeF-Cl-ClAc)]",3280
11,"CCCC[C@@H]1NC(=O)[C@H](Cc2ccccc2F)NC(=O)[C@H](CC2CCC2)NC(=O)[C@H](CCO)NC(=O)[C@H](CCCNC(=N)N)NC(=O)[C@H](Cc2ccccc2)NC(=O)CSC[C@@](C)(C(N)=O)NC(=O)[C@H](Cc2ccccc2)N(C)C1=O [compound 50, cyclo(F-R-hS-cBuA-Phe2F-Nle-NMeF-aMeCl-ClAc)] ({CH2CO}-FR[hSer][Cba][Phe(2-F)][Nle][NMeF][αMeC]-NH2; thioether N-8)",503
12,"CCCC[C@@H]1NC(=O)[C@H](Cc2cccnc2)NC(=O)[C@H](C)N(C)C(=O)[C@H](Cc2ccccc2)OC(=O)C23CC(CNC(=O)[C@H](Cc4cccnc4)N(C)C(=O)[C@H](CCCC)NC(=O)[C@H](Cc4ccccc4F)NC1=O)(C2)C3 [compound 244, cyclo(FLac-NMeA-3Pal-Nle-Phe2F-Nle-NMe3Pal-amBCP)] (cyclo([3Pal][Nle][Phe(2-F)][Nle][NMe3Pal][X1][PhLac][NMeA]))",36
13,"CC(C)CC[C@@H]1NC(=O)[C@H](Cc2cnc(F)cc2F)NC(=O)[C@H](CC2CC2)NC(=O)[C@H](Cc2cncnc2)NC(=O)[C@H](C)N(C)C(=O)[C@H](Cc2ccccc2)OC(=O)C23CC(CNC(=O)[C@H](Cc4ccccc4)N(C)C1=O)(C2)C3 [compound 294, cyclo(FLac-NMeA-PyrimAla-cPrA-3Pal46F2-hL-NMeF-amBCP)] (cyclo([Ala(cPr)][X37][hLeu][NMeF][X1][PhLac][NMeA][Ala(pyrimidin-5-yl)]))",7
14,"CCCC[C@@H]1NC(=O)[C@H](Cc2ccccc2F)NC(=O)[C@H](CC2CCC2)NC(=O)[C@@H](Cc2cccnc2)NC(=O)CN(CCCn2ccnc2)C(=O)[C@H](Cc2ccccc2)NC(=O)C23CC(CNC(=O)[C@H](Cc4cccnc4)N(C)C1=O)(C2)C3 [compound 181, cyclo(F-IPG-d3Pal-cBuA-Phe2F-Nle-NMe3Pal-amBCP)] (cyclo(F[N(3-imidazol-1-ylpropyl)Gly][d3Pal][Cba][Phe(2-F)][Nle][NMe3Pal][X1]))",1230
15,"CCCC[C@@H]1NC(=O)[C@H](Cc2ccc(F)nc2)NC(=O)[C@H](C)N(C)C(=O)[C@H](Cc2ccccc2)OC(=O)C23CC(CNC(=O)[C@H](Cc4cccnc4)N(C)C(=O)[C@H](CCCC)NC(=O)[C@H](Cc4ccccc4F)NC1=O)(C2)C3 [compound 235, cyclo(FLac-NMeA-4F3Pal-Nle-Phe2F-Nle-NMe3Pal-amBCP)] (cyclo([NMe3Pal][X1][PhLac][NMeA][X25][Nle][Phe(2-F)][Nle]))",18.7
16,"CCCC[C@@H]1NC(=O)[C@H](Cc2cncnc2)NC(=O)[C@H](C)N(C)C(=O)[C@H](Cc2ccccc2)OC(=O)C23CC(CNC(=O)[C@H](Cc4ccccc4)N(C)C(=O)[C@H](CCC(C)C)NC(=O)[C@H](Cc4ccccc4F)NC1=O)(C2)C3 [compound 132, cyclo(FLac-NMeA-PyrimAla-Nle-Phe2F-hL-NMeF-amBCP)] (cyclo([NMeA][Ala(pyrimidin-5-yl)][Nle][Phe(2-F)][hLeu][NMeF][X1][PhLac]))",7.87
17,"CCCC[C@@H]1NC(=O)[C@H](Cc2ccc(O)cc2)NC(=O)[C@H](CCOC)NC(=O)[C@H](Cc2ccc(O)cc2)NC(=O)[C@H](CCCNC(=N)N)NC(=O)[C@H](Cc2ccccc2)NC(=O)CSCCNC(=O)[C@H](Cc2ccccc2)N(C)C1=O [compound 77, cyclo(F-R-Y-hSOMe-Y-Nle-NMeF-Cysteamine-ClAc)] (cyclo(FRY[hSer](Me)Y[Nle][NMeF][NHCH2CH2SCH2CO]))",2850
18,"CCCC[C@@H]1NC(=O)[C@H](Cc2ncc(Cl)cn2)NC(=O)[C@H](C)N(C)C(=O)[C@H](Cc2ccccc2)OC(=O)C23CC(CNC(=O)[C@H](Cc4ccccc4)N(C)C(=O)[C@H](CCCC)NC(=O)[C@H](Cc4ccccc4F)NC1=O)(C2)C3 [compound 321, cyclo(FLac-NMeA-Ala2Pyrim5Cl-Nle-Phe2F-Nle-NMeF-amBCP)] (cyclo([NMeA][X67][Nle][Phe(2-F)][Nle][NMeF][X1][PhLac]))",617
19,"CCCCC[C@@H]1NC(=O)[C@H](Cc2ccc(OC)cc2)NC(=O)[C@H](CC2CCC2)NC(=O)[C@H](Cc2cccnc2)NC(=O)[C@H](CCCNC(=N)N)NC(=O)[C@H](Cc2ccccc2)NC(=O)CSC[C@@](C)(C(N)=O)NC(=O)[C@H](Cc2ccc(C)nc2)N(C)C1=O [compound 377, cyclo(F-R-3Pal-cBuA-TyrOMe-Ahp-NMe3Pal4Me-aMeCl-ClAc)] ({CH2CO}-FR[3Pal][Cba]Y(Me)[Ahp(2)][NMe3Pal(6-Me)][αMeC]-NH2; thioether N-8)",8.11
20,"CCCC[C@@H]1NC(=O)[C@H](Cc2cccnc2)NC(=O)[C@H](C)N(C)C(=O)[C@H](Cc2ccccc2)OC(=O)CSC[C@@](C)(C(N)=O)NC(=O)[C@H](Cc2cccnc2)N(C)C(=O)[C@H](CCCC)NC(=O)[C@H](Cc2ccccc2F)NC1=O [compound 398, cyclo(FLac-NMeA-3Pal-Nlc-Phe2F-Nle-NMe3Pal-aMeCl-ClAc)] ({CH2CO}-[PhLac][NMeA][3Pal][Nle][Phe(2-F)][Nle][NMe3Pal][αMeC]-NH2; thioether N-8)",3.81

# Same assay, conditions: listed as 189
row,SMILES,EC50 [nM]
1,"COc1ccc(C[C@@H]2NC(=O)[C@H](CC3CCC3)NC(=O)[C@H](Cc3cccnc3)NC(=O)[C@H](CCCNC(=N)N)NC(=O)[C@H](Cc3ccccc3)NC(=O)CSC[C@](C)(C(N)=O)NC(=O)[C@@H]3CCCCCCC[C@H](NC2=O)C(=O)N3C)cc1 (single isomer, unassigned) [SEQ ID NO: 189]",1560
